Our source for the IC50 values is patent US6841682B2, “Heterocycles useful in the treatment of benign prostatic hyperplasia” (Janseen Pharmaceutica N.V., priority 1997, dated 2005).

Like-named read-outs stand apart in the source and are kept apart here. Bounds are passed on as bounds.

The target of assay [1] is T1, α1a-AR (Homo sapiens, UniProt P35348).
T1 construct: expressed in transfected cells; host or cells: COS cells (pcDNA3 vector, DEAE-dextran transient transfection); membrane preparation
T1 sequence (P35348 1-466): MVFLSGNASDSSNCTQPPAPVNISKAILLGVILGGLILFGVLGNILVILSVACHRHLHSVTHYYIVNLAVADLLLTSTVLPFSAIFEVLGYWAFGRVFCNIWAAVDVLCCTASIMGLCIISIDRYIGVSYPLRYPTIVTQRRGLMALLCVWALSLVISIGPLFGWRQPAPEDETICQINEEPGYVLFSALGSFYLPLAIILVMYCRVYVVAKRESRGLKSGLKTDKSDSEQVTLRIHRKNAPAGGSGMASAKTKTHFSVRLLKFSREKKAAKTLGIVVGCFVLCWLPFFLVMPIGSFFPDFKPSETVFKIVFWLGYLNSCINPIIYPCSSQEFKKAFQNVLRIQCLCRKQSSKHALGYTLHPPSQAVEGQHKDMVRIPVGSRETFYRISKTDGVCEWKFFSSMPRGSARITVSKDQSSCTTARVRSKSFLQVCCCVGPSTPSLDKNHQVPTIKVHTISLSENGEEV
As to the kind of experiment: radioligand ([125I]-HEAT) receptor binding assay, COS cell membranes, α1a-AR. The text has this: (§1) The first assay tested the ability of compounds of Formula I to bind to membrane bound receptors α1a-AR, α1b-AR and α1d-AR.
(§2) The DNA sequences of the three cloned human α1-AR subtypes have been published. […] We used published DNA sequence information to design-primers for use in RT-PCR amplification of each subtype to obtain cloned cDNAs. Human poly A+ RNA was obtained from commercially available sources and included hippocampus and prostate samples, sources which have been cited in the literature. For the primary screen a radio ligand binding assay was used which employed membrane preparations from cells expressing the individual cloned receptor cDNAs.
(§3) Each α1 receptor subtype was cloned from poly A+ RNA by the standard method of reverse transcription-polymerase chain reaction (RT-PCR). The following sources of polyA+ RNA were used for the cloning of the al receptor subtypes: α1a-AR, human hippocampus and prostate, α1b-AR, human hippocampus, α1d-AR, human hippocampus. The resulting cDNAs were cloned into the pcDNA3 mammalian expression vector (Invitrogen Corp., San Diego Calif.). Each DNA was sequenced for verification and to detect any possible mutations introduced during the amplification process. Any deviation in sequence from the published consensus for each receptor subtype was corrected by site-directed mutagenesis.
(§4) The three α1-AR subtypes (a, b, d) were transfected into COS cells using a standard DEAE-dextran procedure with a chloroquine shock. In this procedure, each tissue culture dish (100 mm) was inoculated with 3.5×10^6 cells and transfected with 10 μg of DNA. Approximately 72 hours post-transfection, the cells were harvested and COS membranes were prepared. Transfected COS cells from 25 plates (100 mm) were scraped and suspended in 15 mL of TE buffer (50 mM Tris-HCl, 5 mM EDTA, pH7.4). The suspension was disrupted with a homogenizer. It was then centrifuged at 1000×g for 10 minutes at 4° C. The supernatant was centrifuged at 34,500×g for 20 minutes at 4° C. The pellet was resuspended in 5 mL TNE buffer (50 mM Tris-HCl, 5 mM EDTA, 150 mM NaCl, pH7.4). The resulting membrane preparation was aliquoted and stored at −70° C. The protein concentration was determined following membrane solubilization with TritonX-100.
The ability of each compound to bind to each of the α1-AR subtypes was assessed in a receptor binding assay. […] The plate was incubated for 1 hour at room temperature and the reaction mixtures were filtered through a Packard GF/C Unifilter filter plate. The filter plate was dried for 1 hour in a vacuum oven. Scintillation fluid ([…]) was added to each well, and the filter plate was counted in a Packard Topcount scintillation counter. Data was analyzed using GraphPad Prism software.

Assay [2] concerns the target T2, α1d-AR (Homo sapiens, UniProt P25100).
T2 construct: expressed in transfected cells; host or cells: COS cells (pcDNA3 vector, DEAE-dextran transient transfection); membrane preparation
T2 sequence (P25100 1-572): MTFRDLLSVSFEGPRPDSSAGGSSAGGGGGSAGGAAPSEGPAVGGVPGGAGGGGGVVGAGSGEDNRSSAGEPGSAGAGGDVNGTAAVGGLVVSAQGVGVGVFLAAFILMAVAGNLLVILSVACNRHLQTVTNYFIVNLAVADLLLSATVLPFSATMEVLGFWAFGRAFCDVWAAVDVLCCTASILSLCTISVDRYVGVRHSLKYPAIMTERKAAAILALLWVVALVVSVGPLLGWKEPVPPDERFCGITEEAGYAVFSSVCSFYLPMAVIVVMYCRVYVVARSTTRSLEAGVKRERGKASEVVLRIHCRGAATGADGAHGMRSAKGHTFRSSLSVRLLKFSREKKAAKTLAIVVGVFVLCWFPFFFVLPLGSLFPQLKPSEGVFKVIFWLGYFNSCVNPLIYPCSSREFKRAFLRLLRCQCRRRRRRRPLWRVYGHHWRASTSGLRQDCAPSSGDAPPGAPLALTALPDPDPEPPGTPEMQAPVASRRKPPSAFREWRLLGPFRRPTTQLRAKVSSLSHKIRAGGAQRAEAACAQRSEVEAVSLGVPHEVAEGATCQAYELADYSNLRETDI
Kind of assay: radioligand ([125I]-HEAT) receptor binding assay, COS cell membranes, α1d-AR. The settings on record: Tables A-J, [125I]-HEAT 50 pM.
Excerpt: as §1
as §2, with “receptor cDNAs. Radiolabeled ligands with binding activity on all three subtypes (non-selective) are commercially available ([125I]-HEAT, [3H]-prazosin).” for “receptor cDNAs.”
as §3, §4
(§5) The ability of each compound to bind to each of the α1-AR subtypes was assessed in a receptor binding assay. [125I]-HEAT, a non-selective α1-AR ligand, was used as the radiolabeled ligand. Each well of a 96-well plate received: 140 μL TNE, 25 μL [125I]-HEAT diluted in TNE (50,000 cpm; final concentration 50 pM), 10 μL test compound diluted in DMSO (final concentration 1 pM-10 μM), […] COS cell membrane preparation expressing one of the three α1-AR subtypes (0.05-0.2 mg membrane protein). The plate was incubated for 1 hour at room temperature and the reaction mixtures were filtered through a Packard GF/C Unifilter filter plate. The filter plate was dried for 1 hour in a vacuum oven. Scintillation fluid ([…]) was added to each well, and the filter plate was counted in a Packard Topcount scintillation counter. Data was analyzed using GraphPad Prism software.
(§6) Tables A-J list the IC50 values expressed in nanomolar concentration for select compounds of the invention in all receptor subtypes.

The target in assay [3] is T3, α1b-AR (Homo sapiens, UniProt P35368).
T3 construct: expressed in transfected cells; host or cells: COS cells (pcDNA3 vector, DEAE-dextran transient transfection); membrane preparation
T3 sequence (P35368 1-520): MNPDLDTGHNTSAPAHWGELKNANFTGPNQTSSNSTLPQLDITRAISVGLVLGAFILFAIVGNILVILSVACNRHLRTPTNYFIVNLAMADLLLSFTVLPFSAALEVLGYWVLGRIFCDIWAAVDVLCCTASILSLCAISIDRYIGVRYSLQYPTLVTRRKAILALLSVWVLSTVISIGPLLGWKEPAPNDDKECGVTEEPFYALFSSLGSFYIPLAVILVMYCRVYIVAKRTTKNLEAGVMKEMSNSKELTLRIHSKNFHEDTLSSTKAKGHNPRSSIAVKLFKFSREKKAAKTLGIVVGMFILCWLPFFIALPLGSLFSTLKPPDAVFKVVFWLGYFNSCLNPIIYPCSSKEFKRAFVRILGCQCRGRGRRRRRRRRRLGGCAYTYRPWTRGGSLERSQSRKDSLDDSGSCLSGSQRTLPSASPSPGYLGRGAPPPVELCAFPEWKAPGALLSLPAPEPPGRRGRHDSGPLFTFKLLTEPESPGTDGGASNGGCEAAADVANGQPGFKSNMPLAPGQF
As to the kind of experiment: radioligand ([125I]-HEAT) receptor binding assay, COS cell membranes, α1b-AR.
Excerpt: as §1
as §2, with “receptor cDNAs. Radiolabeled ligands with binding activity on all three subtypes (non-selective) are commercially available ([125I]-HEAT, [3H]-prazosin).” for “receptor cDNAs.”
as §3, §4, §5, §6

Assay [4] has as its target T4, α1c (Homo sapiens, UniProt P25100).
T4 construct: expressed in transfected cells
T4 sequence (P25100 1-572): T2 sequence (P25100 1-572)
Kind of assay: α1c screen (as named in the preparative examples). It is filed as binding. The settings on record: stated in the preparative example.
Excerpt: as §1
as §2, with “receptor cDNAs. Radiolabeled ligands with binding activity on all three subtypes (non-selective) are commercially available ([125I]-HEAT, [3H]-prazosin).” for “receptor cDNAs.”
as §3, §4
The ability of each compound to bind to each of the α1-AR subtypes was assessed in a receptor binding assay. [125I]-HEAT, a non-selective α1-AR ligand, was used as the radiolabeled ligand. […] Scintillation fluid (25 mL) was added to each well, and the filter plate was counted in a Packard Topcount scintillation counter. Data was analyzed using GraphPad Prism software.

Setting [5] is: stated in the preparative example, read-out: activity in the α1a screen.
The mark [6] stands for this setting: stated in the preparative example, read-out: activity in the α1b screen.

Take `CC(C)Oc1ccccc1N1CCN(C/C=C/C(=O)CN2CCCCC2=O)CC1` [compound 36]: the IC50 in assay [1] (Tables A-J, [125I]-HEAT 50 pM, COS membranes, read-out: α1a IC50) is 0.0063 µM; in assay [1] (setting [5]), 0.018 µM; in assay [2], 0.215 µM; in assay [3] (Tables A-J, [125I]-HEAT 50 pM, COS membranes, read-out: α1b IC50), greater than 10 µM; in assay [3] (setting [6]) it was 5.32 µM; in assay [4] it was 0.602 µM.
Consider `CC(C)Oc1ccccc1N1CCN(CC(O)CC(=O)CN2CCCCC2=O)CC1` (stereo not drawn) [compound 35], for which the IC50 in assay [1] (setting [5]) was 0.028 µM; in assay [3] (setting [6]), greater than 10 µM; in assay [4], 0.253 µM.
The like results for `CC(C)Oc1ccccc1N1CCN(CC(O)CC(O)CN2CCCCC2=O)CC1` (stereo not drawn) [compound 37] were, in that order, 0.053 µM, greater than 10 µM and 0.224 µM.
The like results for `CC(C)Oc1ccccc1N1CCN(CC(=O)CC(=O)CN2CCCCC2=O)CC1` [compound 2] were, in that order, 0.417 µM, greater than 10 µM and 6.04 µM.
